Experimental data as given in ChEMBL document CHEMBL1909046, “DrugMatrix in vitro pharmacology data”.

Columns and labels:
[1] = target: T1, Neuropeptide Y receptor type 2 (Homo sapiens, UniProt P49146); assay type: cell membranes, KAN-TS, Membrane; conditions: kan-ts; note: in other assays of this panel Not Active means under 50% inhibition at 10 µM
T1 sequence (P49146 whole entry): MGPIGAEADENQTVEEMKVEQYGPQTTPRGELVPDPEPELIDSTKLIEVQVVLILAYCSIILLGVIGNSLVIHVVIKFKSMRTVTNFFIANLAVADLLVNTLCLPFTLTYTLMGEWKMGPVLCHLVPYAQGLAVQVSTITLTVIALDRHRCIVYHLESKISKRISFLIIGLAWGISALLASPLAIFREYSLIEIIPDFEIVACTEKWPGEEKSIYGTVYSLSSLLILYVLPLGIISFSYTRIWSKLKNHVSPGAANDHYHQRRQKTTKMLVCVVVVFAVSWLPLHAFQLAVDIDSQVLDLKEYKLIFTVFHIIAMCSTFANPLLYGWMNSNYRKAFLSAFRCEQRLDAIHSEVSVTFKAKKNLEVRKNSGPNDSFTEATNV

[2] = DRUGMATRIX: Platelet-Derived Growth Factor (PDGF) radioligand binding (ligand: [125I] PDGF); assay type: cell-based; conditions: nih3t3; Not Active = under 50% inhibition at 10 µM
[3] = DRUGMATRIX: Imidazoline I2, Central radioligand binding (ligand: [3H] Idazoxan); assay type: cell membranes, Rattus norvegicus, Wistar, Cerebral cortex, Membrane; conditions: Not Active = under 50% inhibition at 10 µM
[4] = DRUGMATRIX: Calcium Channel Type L, Benzothiazepine radioligand binding (ligand: [3H] Diltiazem); assay type: cell membranes, Rattus norvegicus, Wistar, Brain, Membrane; conditions: Not Active = under 50% inhibition at 10 µM
[5] = DRUGMATRIX: Phorbol Ester radioligand binding (ligand: [3H] PDBu); assay type: cell membranes, Mus musculus, ICR, Brain, Membrane; conditions: Not Active = under 50% inhibition at 10 µM
[6] = target: Matrix metalloproteinase-9 (Homo sapiens, UniProt P14780); test: biochemical; assay type: cell-based;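 note: inhibition of isolated MMP-9 enzyme activity toward a synthetic peptide substrate, from the DrugMatrix protease screening panel; in other assays of this panel Not Active means under 50% inhibition at 10 µM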
Matrix metalloproteinase-9, sequence (P14780 whole entry): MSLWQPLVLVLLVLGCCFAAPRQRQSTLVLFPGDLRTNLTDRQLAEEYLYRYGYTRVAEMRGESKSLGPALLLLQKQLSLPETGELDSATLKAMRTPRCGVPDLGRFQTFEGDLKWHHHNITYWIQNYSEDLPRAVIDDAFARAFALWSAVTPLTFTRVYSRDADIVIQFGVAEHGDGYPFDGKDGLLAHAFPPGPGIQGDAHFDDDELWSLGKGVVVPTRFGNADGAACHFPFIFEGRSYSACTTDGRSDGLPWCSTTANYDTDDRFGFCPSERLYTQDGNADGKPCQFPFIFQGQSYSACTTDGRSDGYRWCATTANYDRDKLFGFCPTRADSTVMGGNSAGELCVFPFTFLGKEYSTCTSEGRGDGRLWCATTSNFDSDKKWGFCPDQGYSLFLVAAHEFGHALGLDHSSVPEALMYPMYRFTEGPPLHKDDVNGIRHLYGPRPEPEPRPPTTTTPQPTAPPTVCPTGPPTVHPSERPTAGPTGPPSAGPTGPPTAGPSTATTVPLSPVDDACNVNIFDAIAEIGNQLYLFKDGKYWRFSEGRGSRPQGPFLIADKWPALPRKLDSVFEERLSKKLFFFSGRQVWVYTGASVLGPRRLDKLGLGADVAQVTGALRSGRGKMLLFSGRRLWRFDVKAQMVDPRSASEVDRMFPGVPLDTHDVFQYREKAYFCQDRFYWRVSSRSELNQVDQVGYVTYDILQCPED

Compound	IC50 [1]	IC50 [2]	Ki [2]	IC50 [3]	Ki [3]	IC50 [4]	Ki [4]	IC50 [5]	Ki [5]	IC50 [6]	Ki [1]	Ki [6]	IC50 ([4]; read-out: IC50)	Ki ([4]; read-out: Ki)	Ki ([3]; read-out: Ki)
CN(C)[C@@H]1C(O)=C(C(N)=O)C(=O)[C@@]2(O)C(O)=C3C(=O)c4c(O)ccc(Cl)c4[C@@](C)(O)[C@H]3C[C@@H]12 [CHLORTETRACYCLINE]	Not Active	Not Active	Not Active	Not Active	Not Active	Not Active	Not Active	Not Active	Not Active	Not Active					
Nc1ccn([C@@H]2O[C@H](CO)[C@@H](O)[C@@H]2O)c(=O)n1 [CYTARABINE]	Not Active	Not Active	Not Active	Not Active	Not Active	Not Active	Not Active	Not Active	Not Active	Not Active					
CC(C)c1cccc(C(C)C)c1O [PROPOFOL]	Not Active	Not Active	Not Active	Not Active	Not Active	Not Active	Not Active	Not Active	Not Active	Not Active					
NYSTATIN	Not Active	Not Active	Not Active	Not Active	Not Active	Not Active	Not Active	Not Active	Not Active	Not Active	Not Active	Not Active			
Cc1cc2c(OCC(CNC(C)(C)C)OC(=O)c3ccccc3)cccc2[nH]1 (stereo unspecified) [BOPINDOLOL]	Not Active	Not Active	Not Active	Not Active	Not Active			Not Active	Not Active	Not Active			2800 nM	2490 nM	
CC(=O)Oc1ccc(C(c2ccc(OC(C)=O)cc2)c2ccccn2)cc1 [BISACODYL]	Not Active	Not Active	Not Active	Not Active	Not Active	Not Active	Not Active	Not Active	Not Active	Not Active					
C[C@@H](CO)NC(=O)[C@@H]1C=C2c3cccc4[nH]cc(c34)C[C@H]2N(C)C1 [ERGONOVINE]	Not Active	Not Active	Not Active			Not Active	Not Active	Not Active	Not Active	Not Active					1230 nM
CC(=O)O[C@H]1C(=O)[C@@]2(C)[C@H]([C@H](OC(=O)c3ccccc3)[C@]3(O)C[C@H](OC(=O)[C@H](O)[C@@H](NC(=O)c4ccccc4)c4ccccc4)C(C)=C1C3(C)C)[C@]1(OC(C)=O)CO[C@@H]1C[C@@H]2O [PACLITAXEL]	Not Active	Not Active	Not Active	Not Active	Not Active	Not Active	Not Active	Not Active	Not Active	Not Active					
Nc1ccn([C@@H]2O[C@H](CO)[C@@H](O)C2(F)F)c(=O)n1 [GEMCITABINE]	Not Active	Not Active	Not Active	Not Active	Not Active	Not Active	Not Active	Not Active	Not Active	Not Active					
COc1cc(N)c(Cl)cc1C(=O)NC1CCN(CCCOc2ccc(F)cc2)CC1OC (stereo unspecified) [CISAPRIDE]	Not Active	Not Active	Not Active	Not Active	Not Active			Not Active	Not Active	Not Active			802 nM	713 nM	
CCC1(CCC(C)C)C(=O)NC(=O)NC1=O [AMOBARBITAL]	Not Active	Not Active	Not Active	Not Active	Not Active	Not Active	Not Active	Not Active	Not Active	Not Active					
O=C(O)c1cccnc1Nc1cccc(C(F)(F)F)c1 [NIFLUMIC ACID]	Not Active	Not Active	Not Active	Not Active	Not Active	Not Active	Not Active	Not Active	Not Active	Not Active					
